These results are taken from PubChem BioAssay AID218 (DTP/NCI, 2004).

The test system of this assay is C57BL/6 mice, Adenocarcinoma 755 sc, tumor weight T/C. Description: NCI In Vivo Anticancer Drug Screen. Data for tumor model Adenocarcinoma 755 (subcutaneous) in C57BL/6 mice. The conditions noted are these: endpoint: mean tumor weight, higher = larger tumour. The protocol: The antitumor activity of compounds was measured in mice bearing transplantable tumors. Survival or tumor size were measured and the results are expressed as the measurement made in the treated group (T) divided by the measurement made in the vehicle treated control group (C). The tumor model used in this assay is Adenocarcinoma 755 (subcutaneous) in C57BL/6 mice

Where [1] appears, read: dose: 2.5 mg/kg/injection, schedule: Q01DX011 (ip), vehicle: saline.
Setting [2] is: dose: 5.0 mg/kg/injection, schedule: Q01DX011 (ip), vehicle: saline.
[3] abbreviates: dose: 10.0 mg/kg/injection, schedule: Q01DX011 (ip), vehicle: saline.
[4] abbreviates: dose: 20.0 mg/kg/injection, schedule: Q01DX011 (ip), vehicle: saline.
Setting [5] is: dose: 40.0 mg/kg/injection, schedule: Q01DX011 (ip), vehicle: saline.
Setting [6] is: dose: 4.0 mg/kg/injection, schedule: Q01DX011 (ip), vehicle: saline.
Setting [7] is: dose: 8.0 mg/kg/injection, schedule: Q01DX011 (ip), vehicle: saline.
Setting [8] is: dose: 100.0 mg/kg/injection, schedule: Q01DX011 (ip), vehicle: saline.

Structures are written as SMILES. Several values for one entry are separate records, joined by “and”; a condition that tells them apart may be missing. Identical values can stand only once. Non-standard residues stand in square brackets, D forms with d. Residues, ends and D or L forms follow the SMILES beside them. Ac5c = NC1(C(=O)O)CCCC1

`C[N+](C)(C)c1ncnc2nc[nH]c12`: the T/C reads like this: (dose: 1.25 mg/kg/injection, schedule: Q#A X022 (ip), vehicle: saline) 95 % of control; under setting [1], 109 % of control; (dose: 2.5 mg/kg/injection, schedule: Q01DX011 (sc), vehicle: saline) 56 % of control; (dose: 2.5 mg/kg/injection, schedule: Q#A X022 (ip), vehicle: saline) 93 % of control; under setting [2], 52 % of control; (dose: 5.0 mg/kg/injection, schedule: Q01DX011 (sc), vehicle: saline) 34 % of control. For the same molecule, the T/C runs as follows: (dose: 5.0 mg/kg/injection, schedule: Q#A X022 (ip), vehicle: saline) 40 % of control; (dose: 7.5 mg/kg/injection, schedule: Q03DX004 (ip), vehicle: saline) 77 % of control; (dose: 10.0 mg/kg/injection, schedule: Q01DX006 (iv), vehicle: saline) 50 % of control; under setting [3], 12 % of control and 18 % of control; (dose: 10.0 mg/kg/injection, schedule: Q01DX011 (oral), vehicle: saline) 58 % of control; (dose: 10.0 mg/kg/injection, schedule: Q01DX011 (sc), vehicle: saline) 34 % of control. Further, the T/C was 54 % of control (dose: 10.0 mg/kg/injection, schedule: Q02DX006 (im), vehicle: saline); 13 % of control and 18 % of control (dose: 10.0 mg/kg/injection, schedule: Q#A X022 (ip), vehicle: saline); 76 % of control (dose: 15.0 mg/kg/injection, schedule: Q03DX004 (ip), vehicle: saline); 6 % of control and 11 % of control and 18 % of control under setting [4]; 43 % of control (dose: 20.0 mg/kg/injection, schedule: Q01DX011 (oral), vehicle: saline); 8 % of control and 16 % of control (dose: 20.0 mg/kg/injection, schedule: Q01DX011 (sc), vehicle: saline). Further, the T/C is 50 % of control (dose: 20.0 mg/kg/injection, schedule: Q02DX006 (im), vehicle: saline); 8 % of control (dose: 20.0 mg/kg/injection, schedule: Q#A X022 (ip), vehicle: saline); 32 % of control (dose: 30.0 mg/kg/injection, schedule: Q03DX004 (ip), vehicle: saline); 42 % of control (dose: 40.0 mg/kg/injection, schedule: Q01DX006 (iv), vehicle: saline); 6 % of control and 9 % of control under setting [5]; 12 % of control and 18 % of control (dose: 40.0 mg/kg/injection, schedule: Q01DX011 (oral), vehicle: saline). Moreover, the T/C by setting is: (dose: 40.0 mg/kg/injection, schedule: Q01DX011 (sc), vehicle: saline) 7 % of control; (dose: 40.0 mg/kg/injection, schedule: Q02DX006 (im), vehicle: saline) 39 % of control; (dose: 60.0 mg/kg/injection, schedule: Q03DX004 (ip), vehicle: saline) 16 % of control and 18 % of control; (dose: 75.0 mg/kg/injection, schedule: Q01DX001 (ip), vehicle: saline) 76 % of control and 85 % of control; (dose: 80.0 mg/kg/injection, schedule: Q01DX006 (iv), vehicle: saline) 15 % of control; (dose: 80.0 mg/kg/injection, schedule: Q01DX011 (ip), vehicle: saline) 5 % of control. For the same molecule, the T/C by setting is: (dose: 80.0 mg/kg/injection, schedule: Q01DX011 (oral), vehicle: saline) 5 % of control and 10 % of control and 17 % of control; (dose: 80.0 mg/kg/injection, schedule: Q01DX011 (sc), vehicle: saline) 5 % of control; (dose: 80.0 mg/kg/injection, schedule: Q02DX006 (im), vehicle: saline) 20 % of control; (dose: 120.0 mg/kg/injection, schedule: Q03DX004 (ip), vehicle: saline) 10 % of control; (dose: 150.0 mg/kg/injection, schedule: Q01DX001 (ip), vehicle: saline) 47 % of control and 48 % of control; (dose: 160.0 mg/kg/injection, schedule: Q01DX011 (oral), vehicle: saline) 8 % of control. Also, the T/C is, setting by setting: (dose: 160.0 mg/kg/injection, schedule: Q01DX011 (sc), vehicle: saline) 4 % of control; (dose: 300.0 mg/kg/injection, schedule: Q01DX001 (ip), vehicle: saline) 33 % of control and 40 % of control; (dose: 320.0 mg/kg/injection, schedule: Q01DX011 (oral), vehicle: saline) 5 % of control.
With `O=C(O)CCCc1ccc(N(CCCl)CCCl)cc1`, the T/C was 73 % of control (dose: 1.0 mg/kg/injection, schedule: Q01DX011 (ip), vehicle: saline); 80 % of control under setting [6]; 51 % of control under setting [7]; 98 % of control (dose: 16.0 mg/kg/injection, schedule: Q01DX011 (ip), vehicle: saline).
As for `Nc1nc(SCc2ccccc2)c2[nH]cnc2n1`, the T/C under setting [1] is 17 % of control, the T/C under setting [2] is 5 % of control and the T/C under setting [3] is 2 % of control.
Regarding `N=[N+]=CC(=O)OCC(N)C(=O)O` (stereo not given), the T/C was 31 % of control under setting [6] and 46 % of control under setting [7].
On to `[I][Hg][CH2]C1OCCOC1[CH2][Hg][I]` (stereo not given), for which the T/C runs as follows: (dose: 4.0 mg/kg/injection, schedule: Q01DX011 (ip), vehicle: carboxymethylcellulose (CMC)) 84 % of control; (dose: 8.0 mg/kg/injection, schedule: Q01DX011 (ip), vehicle: carboxymethylcellulose (CMC)) 46 % of control; (dose: 16.0 mg/kg/injection, schedule: Q01DX011 (ip), vehicle: carboxymethylcellulose (CMC)) 34 % of control; (dose: 32.0 mg/kg/injection, schedule: Q01DX011 (ip), vehicle: carboxymethylcellulose (CMC)) 44 % of control.
Take `Clc1ccccc1CSc1ncnc2nc[nH]c12`: the T/C is, setting by setting: (dose: 75.0 mg/kg/injection, schedule: Q01DX011 (ip), vehicle: saline) 13 % of control; under setting [8], 5 % of control; (dose: 150.0 mg/kg/injection, schedule: Q01DX011 (ip), vehicle: saline) 1 % of control; (dose: 200.0 mg/kg/injection, schedule: Q01DX011 (ip), vehicle: saline) 13 % of control.
`CC(C)C(=O)OCC1OC(n2cnc3c(=S)nc(N)[nH]c32)C(OC(=O)C(C)C)C1OC(=O)C(C)C` (stereo not given): the T/C runs as follows: (dose: 1.5 mg/kg/injection, schedule: Q01DX011 (ip), vehicle: saline) 68 % of control; (dose: 3.0 mg/kg/injection, schedule: Q01DX011 (ip), vehicle: saline) 25 % of control.
As to `CSc1ncnc2nc[nH]c12`, the T/C was 16 % of control (dose: 1.25 mg/kg/injection, schedule: Q01DX011 (ip), vehicle: carboxymethylcellulose (CMC)); 8 % of control (dose: 2.5 mg/kg/injection, schedule: Q01DX011 (ip), vehicle: carboxymethylcellulose (CMC)); 58 % of control (dose: 7.5 mg/kg/injection, schedule: Q01DX011 (ip), vehicle: saline); 23 % of control under setting [3]; 2 % of control (dose: 15.0 mg/kg/injection, schedule: Q01DX011 (ip), vehicle: saline); 6 % of control and 9 % of control under setting [4]. Further, the T/C was 5 % of control (dose: 30.0 mg/kg/injection, schedule: Q01DX011 (ip), vehicle: carboxymethylcellulose (CMC)); 1 % of control and 2 % of control and 9 % of control (dose: 30.0 mg/kg/injection, schedule: Q01DX011 (ip), vehicle: saline); 2 % of control (dose: 40.0 mg/kg/injection, schedule: Q01DX011 (ip), vehicle: carboxymethylcellulose (CMC)); 3 % of control under setting [5]; 3 % of control (dose: 50.0 mg/kg/injection, schedule: Q01DX011 (ip), vehicle: carboxymethylcellulose (CMC)).
Turning to `NCC(=O)NC1(C(=O)O)CCCC1` (H-Gly-[Ac5c]-OH), the T/C was 58 % of control (dose: 25.0 mg/kg/injection, schedule: Q01DX011 (ip), vehicle: saline); 37 % of control (dose: 50.0 mg/kg/injection, schedule: Q01DX011 (ip), vehicle: saline); 9 % of control under setting [8].
`NC(=S)N/N=C/c1ccc(N)cc1`: the T/C is 86 % of control (dose: 35.0 mg/kg/injection, schedule: Q02DX006 (ip), vehicle: other); 85 % of control (dose: 40.0 mg/kg/injection, schedule: Q02DX006 (ip), vehicle: other); 87 % of control (dose: 50.0 mg/kg/injection, schedule: Q02DX006 (ip), vehicle: other); 70 % of control (dose: 60.0 mg/kg/injection, schedule: Q02DX006 (ip), vehicle: other); 77 % of control (dose: 70.0 mg/kg/injection, schedule: Q02DX006 (ip), vehicle: other).
With `CC[N+](CC)(CC)CCO`, the T/C was 51 % of control (dose: 5.0 mg/kg/injection, schedule: Q02DX006 (ip), vehicle: saline); 25 % of control (dose: 10.0 mg/kg/injection, schedule: Q02DX006 (ip), vehicle: saline); 33 % of control (dose: 15.0 mg/kg/injection, schedule: Q02DX006 (ip), vehicle: saline).

In general, T/C refers to the result in the treated group divided by that in the control group, in per cent.
